Here are results for one compound from article PMC12153356, “An antisense oligomer conjugate with unpredicted bactericidal activity against Fusobacterium nucleatum” (mBio, 2025).

The subject of this experiment is F. nucleatum subsp. nucleatum ATCC 23726 (FNN23). Description: CPP-TAMRA uptake by confocal laser scanning microscopy (CLSM). The format is cell-based, Fusobacterium nucleatum subsp. nucleatum ATCC 23726. The note with it: 5 µM CPP-TAMRA, FNN23 10^8 CFU/mL in MHB, 37°C, 10, 30 and 60 min, 100 cells from four images, cytoplasmic signal. An excerpt: To investigate the efficiency of different cell-penetrating peptides, we excluded a flow cytometry approach to quantify penetration efficiency because upon cell fixation, CPPs were reported to bind to cell membranes and remain attached even after multiple washes, which would result in a false-positive penetration signal in flow cytometry ([118]). Thus, we opted for a microscopy-based investigation with lower throughput but discrimination potential between membrane-associated and cytosolic signals. CPPs were coupled to the fluorophore 5(6)-carboxytetramethylrhodamine (TAMRA) by Peps4LS GmbH, and 200 µM stocks were prepared in house. […] The emission was detected at 685–795 nm for FM 4–64 and 570–620 nm for TAMRA. CLSM images were analyzed using ImageJ. To quantify CPP uptake, 100 cells were chosen out of four images per condition using the bright field image and analyzed for cytosolic TAMRA signal by excluding TAMRA-negative cells and TAMRA signal co-localized with the FM 4–64 signal.

Square brackets hold non-standard residues; d marks the D form. Peptide text beside a SMILES is read from it. * marks the point of attachment. 5TAMRA = CN(C)c1ccc2c(c1)Oc1cc(N(C)C)ccc1C21OC(=O)c2cc(C(=O)*)ccc21; Ahx = NCCCCCC(=O)O; βAla = NCCC(=O)O

With `CN(C)c1ccc2c(c1)Oc1cc(N(C)C)ccc1C21OC(=O)c2cc(C(=O)N[C@@H](CCCNC(=N)N)C(=O)NCCCCCC(=O)N[C@@H](CCCNC(=N)N)C(=O)N[C@@H](CCCNC(=N)N)C(=O)NCCCCCC(=O)N[C@@H](CCCNC(=N)N)C(=O)N[C@@H](CCCNC(=N)N)C(=O)NCCCCCC(=O)N[C@@H](CCCNC(=N)N)C(=O)N[C@@H](CCCNC(=N)N)C(=O)NCCCCCC(=O)N[C@@H](CCCNC(=N)N)C(=O)NCCCCCC(=O)NCCC(=O)O)ccc21` [(RXR)4XB-TAMRA] (5TAMRA-R[Ahx]RR[Ahx]RR[Ahx]RR[Ahx]R[Ahx][βAla]-OH), the “TAMRA-positive cells (uptake efficiency)” value was 100%.
